Where two headings read alike, the source gives them in different places. Bridge positions count the residues as written; N and C are the ends. Ends that are not written are not given here. Peptide text beside a SMILES is read from it. Where only a bound is given, the exact number is not on record here.

Assay [1] concerns Colistin Susceptible P. aeruginosa. It is filed as cell-based, Pseudomonas aeruginosa. Here is the method:
(§1) The antimicrobial activity of the peptides was tested against a collection of P. aeruginosa, selected by their resistance or susceptibility to colistin and/or classified as MDR strains. The origin of the strains was either clinical, relevant to the current clinical situation, or commercial strains belonging to the American Type Culture Collection (ATCC, Manassas, VA, USA), which complemented the collection for comparison and control. For the initial activity screening of the 17 peptides, we tested them against P. aeruginosa ATCC strains 1211007 and 1211101. Both strains are multidrug-resistant; however, the key difference is that strain 1211007 is susceptible to colistin, whereas strain 1211101 is resistant to colistin.
(§2) Minimum Inhibitory Concentration (MIC) of the antimicrobial agents against bacterial strains was obtained through broth microdilution assays following a protocol based on the Clinical & Laboratory Standards Institute’s guidelines. Modifications regarding microplate material and broth were included when testing the peptides’ activity and are detailed below. Colistin MICs were obtained following recommendations of the joint CLSI-EUCAST Polymyxin Breakpoints Working Group using Cation Adjusted Mueller-Hinton Broth (90922, 500 g Sigma-Aldrich®, St. Louis, MO, USA), and strains Escherichia coli 13846 (mcr-1 positive) and P. aeruginosa ATCC 27853 were used as quality controls in all assays. Bacteria were cultured in Columbia Agar plates (Columbia Agar with 5% Sheep Blood 90 mm Stacker plates, Becton Dickinson, Franklin Lakes, NJ, USA) and incubated overnight at 37 °C. Polypropylene round-bottomed 96-well plates (-96-well Polypropylene Storage Microplates, 267334, Thermo Fischer Scientific, Waltham, MA, USA) were used to prevent peptide binding to plate walls. AST broth (BD Phoenix™ AST broth, 8 mL, 246003, Becton Dickinson, Franklin Lakes, NJ, USA) was used when testing the peptides’ activity. […] Three biological and technical replicates were performed per strain.

In assay [2] the test system is Colistin-Resistant P. aeruginosa. It is filed as cell-based, Pseudomonas aeruginosa. Here is the method:
as §1, §2

The mark [3] stands for this setting: colistin-susceptible P. aeruginosa, value in brackets.
[4] abbreviates: colistin-resistant P. aeruginosa, value in brackets.
Where [5] appears, read: colistin-susceptible P. aeruginosa.

A word on the MIC: it is the least concentration at which growth counts as inhibited. With `CC[C@H](C)[C@@H]1NC(=O)CNC(=O)[C@H](CCSC)NC(=O)[C@H](C(C)C)NC(=O)[C@H]([C@@H](C)O)NC(=O)[C@@H]2CSSC[C@@H]3NC(=O)[C@H](Cc4c[nH]cn4)NC(=O)[C@@H](NC(=O)[C@@H](NC(=O)[C@H](Cc4ccccc4)NC(=O)[C@H](C)N)[C@@H](C)O)CSSC[C@@H](C(=O)N[C@@H](CC(C)C)C(=O)O)NC(=O)[C@H](CSSC[C@H](NC(=O)[C@H](CO)NC(=O)[C@H](CCCNC(=N)N)NC(=O)[C@H](CCCNC(=N)N)NC3=O)C(=O)N[C@@H](Cc3ccc(O)cc3)C(=O)N[C@@H](CO)C(=O)N[C@@H]([C@@H](C)O)C(=O)N[C@@H](CCC(=O)O)C(=O)N[C@@H](Cc3ccc(O)cc3)C(=O)N[C@@H](CO)C(=O)N[C@@H](Cc3ccc(O)cc3)C(=O)NCC(=O)N[C@@H]([C@@H](C)O)C(=O)N2)NC(=O)[C@H](Cc2ccccc2)NC(=O)[C@H](CCCNC(=N)N)NC(=O)[C@H](Cc2c[nH]cn2)NC(=O)[C@H](CC(N)=O)NC1=O` [α-defensin 6], the MIC in assay [1] (Colistin Susceptible) is more than 50 µg/mL; in assay [1] (setting [3]) it was more than 13 µM; in assay [2] (Colistin-Resistant), more than 50 µg/mL; in assay [2] (setting [4]) it was more than 13 µM.

Take `CC[C@H](C)[C@@H]1NC(=O)[C@H](CCC(=O)O)NC(=O)[C@@H]2CSSC[C@@H]3NC(=O)[C@H](Cc4ccc(O)cc4)NC(=O)[C@@H](NC(=O)[C@@H](NC(=O)[C@H](C)N)[C@@H](C)O)CSSC[C@@H](C(=O)N[C@@H](CCCNC(=N)N)C(=O)O)NC(=O)[C@H](CSSC[C@H](NC(=O)[C@H](CCCNC(=N)N)NC(=O)CNC(=O)[C@H]([C@@H](C)O)NC(=O)[C@H](CCCNC(=N)N)NC3=O)C(=O)N[C@@H](C)C(=O)N[C@@H]([C@@H](C)O)C(=O)N[C@@H](CCCNC(=N)N)C(=O)N[C@@H](CCC(=O)O)C(=O)N[C@@H](CO)C(=O)N[C@@H](CC(C)C)C(=O)N[C@@H](CO)C(=O)NCC(=O)N[C@@H](C(C)C)C(=O)N2)NC(=O)[C@H](CC(C)C)NC(=O)[C@H](CCCNC(=N)N)NC(=O)[C@H](Cc2ccc(O)cc2)NC(=O)[C@H](CC(C)C)NC(=O)[C@H](CCCNC(=N)N)NC(=O)CNC(=O)[C@H](CO)NC1=O` [α-defensin 5] (H-ATCYCRTGRCATRESLSGVCEISGRLYRLCCR-OH; disulfide 3-31, 5-20, 10-30; N-terminus and C-terminus assumed): the values for the MIC in assay [1] (setting [5]) and in assay [1] (setting [3]) were 50 µg/mL and 14 µM, respectively.

In the case of “SSLLEKGLDGAKKAVGGLGKLGKDAVEDLESVGKGAVHDVKDVLDSVL [Dermicidin]”, the MIC is more than 256 µg/mL in assay [1] (Colistin Susceptible), more than 53 µM in assay [1] (setting [3]), more than 256 µg/mL in assay [2] (Colistin-Resistant) and more than 53 µM in assay [2] (setting [4]).

With `CC[C@H](C)[C@@H]1NC(=O)[C@@H](NC(=O)[C@@H](NC(=O)[C@@H]2CCCN2C(=O)[C@H](Cc2ccccc2)NC(=O)[C@H](Cc2c[nH]cn2)NC(=O)[C@@H](NC(=O)[C@@H](N)CC(=O)O)[C@@H](C)O)[C@@H](C)CC)CSSC[C@@H](C(=O)N[C@@H](CCCCN)C(=O)N[C@H](C(=O)O)[C@@H](C)O)NC(=O)[C@@H]2CSSC[C@@H]3NC(=O)[C@@H]4CSSC[C@H](NC(=O)[C@H](Cc5ccccc5)NC1=O)C(=O)N[C@@H](CSSC[C@H](NC(=O)[C@H](CCCCN)NC(=O)[C@H](CO)NC(=O)[C@H](CCCNC(=N)N)NC(=O)[C@H](Cc1c[nH]cn1)NC3=O)C(=O)NCC(=O)N[C@@H](CCSC)C(=O)N2)C(=O)NCC(=O)N4` [Hepcidin], the MIC in assay [1] (setting [5]) was more than 256 µg/mL; in assay [1] (setting [3]) it was more than 92 µM; in assay [2] (colistin-resistant P. aeruginosa) it was more than 256 µg/mL; in assay [2] (setting [4]), more than 92 µM.

As for “GLLRKGGEKIGEKLKKIGQKIKNFFQKLVPQPEQ [CRAMP]”, the MIC worked out at 32 µg/mL in assay [2] (Colistin-Resistant) and 8 µM in assay [2] (setting [4]).

For “ISRLAGLLRKGGEKIGEKLKKIGQKIKNFFQKLVPQPEQ [CRAMP 1-39]”, the MIC in assay [2] (Colistin-Resistant) came to 32 µg/mL; in assay [2] (setting [4]), 7 µM.

Source of the values: publication PMC12382740, “In Vitro and In Vivo Characterization of Novel Cathelicidin-Based Peptides with Antimicrobial Activity Against Pseudomonas aeruginosa” (Antibiotics, 2025).
